≈ marks a conversion by molar mass, not a printed value. Like-named read-outs stand apart in the source and are kept apart here.
Assays:
[1] = 30% cyclohexanone, 30% cyclohexanol, 30% water, 10% methanol, -6° C.; for Solubility, both actives in solvent: Methomyl: with oxamyl
Procedure: Methomyl and Oxamyl Solubility In Cyclohexanone, Cyclohexanol, CH3 OH and H2 O at -6° C.
Methomyl and oxamyl were dissolved separately and in weight ratios of 1:1, 2:1 and 1:2.5 methomyl to oxamyl in a solvent system consisting of 30 wt. % cyclohexanone, 30 wt. % cyclohexanol, 30 wt. % water and 10 wt. % methanol. These solutions were equilibrated at -6° C. and seeded with methomyl and/or oxamyl crystals. The samples of liquid and solids remained at -6° C. until solid-liquid equilibrium was assured. A liquid sample was removed from each at -6° C. and assayed for methomyl and/or oxamyl. Solids were also isolated at -6° C., washed, dried and dissolved in CH3 OH to yield a 10% solution which was analyzed by TLC to ensure both methomyl and oxamyl crystals were present in the solids of the combination sample. All such solids contained both oxamyl and methomyl.
SOLUBILITY OF METHOMYL AND OXAMYL (2:1, 1:1 and 1:2.5 Wt.
RATIOS) IN CYCLOHEXANONE, CYCLOHEXANOL, CH3 OH AND H2 O

[2] = 60% cyclohexanone, 10% methanol, 30% water, -6° C.; for Solubility, both actives in solvent: Methomyl: with oxamyl
Procedure: Methomyl and/or oxamyl were added to a solvent system consisting of 60% cyclohexanone, 10% methanol and 30% water at room temperature at a concentration higher than the solubility limit at -6° C. The methomyl and oxamyl were added together, at weight ratios of 2:1, 1:1 and 1:2.5. The solutions were cooled to -6° C. and seeded with methomyl and/or oxamyl to initiate crystallization. The solutions remained at -6° C. until equilibrium was assured. The supernatant liquid in each sample was analyzed for methomyl and oxamyl by liquid chromatography.

physchem [3] = settings: -6° C.
Procedure: Solubility of Methomyl and Oxamyl (2:1 wt. ratio) in CH3 OH/H2 O at -6° C.
(§1) Methomyl and oxamyl were added to various methanol:water solvent systems ranging from 100 wt. % CH3 OH to 30 wt. % CH3 OH:70 wt. % H2 O. The methomyl and oxamyl were dissolved in a 2:1 weight ratio of 50 wt. % methomyl to 25 wt. % oxamyl in the solvent systems. The samples were equilibrated at -6° C. in a constant temperature freezer after which they were seeded with methomyl and oxamyl crystals to ensure crystallization of both materials. After crystal-liquid equilibrium was assured, liquid was removed at -6° C. and assayed for methomyl and oxamyl. Solids were also removed at -6° C., washed with hexane and dried. The solids were then dissolved in methanol to yield a 10 wt. % solution. This solution was evaluated by thin layer chromatography (TLC) to ensure the solids consisted of both methomyl and oxamyl.

physchem [4] = settings: -6° C.; remark: listed apart in the source
Procedure: as §1, with “The methomyl and oxamyl were dissolved in a 2:1 weight ratio of 50 wt. % methomyl to 25 wt. % oxamyl in the solvent systems.” left out
Solubility of Methomyl and Oxamyl 1:2.5 wt. ratio in CH3 OH:H2 O at -6° C.
Example 3 was repeated by dissolving methomyl and oxamyl in a 1:2.5 weight ratio in the same solvent systems under the same conditions.

[5] = 80:20 wt acetone/H2O, -6° C.; for Solubility, both actives in solvent: Methomyl: with oxamyl
Procedure: Solubility of Methomyl and Oxamyl 80:20 Wt. Ratio Acetone:H2 O
Methomyl and oxamyl were dissolved in a solvent system consisting of 80 wt. % acetone and 20 wt. % water separately and in 1:1, 2:1 and 1:2.5 wt. ratios of methomyl and oxamyl. These solutions were equilibrated at -6° C. and were seeded with methomyl and/or oxamyl. They remained at -6° C. until solid-liquid equilibrium was assured. Liquid was removed from each sample at -6° C. and assayed for methomyl and oxamyl. Solids were also removed at -6° C., washed, dried and dissolved in methanol to yield a 10 wt. % solution which was evaluated by TLC for oxamyl and methomyl.

[6] = 40/60 ch3oh/h2o, Methomyl alone in solvent, alone
[7] = 50/50 ch3oh/h2o, Methomyl alone in solvent, alone
[8] = 60/40 ch3oh/h2o, Methomyl alone in solvent, alone
[9] = 70/30 ch3oh/h2o, Methomyl alone in solvent, alone
[10] = 80/20 ch3oh/h2o, Methomyl alone in solvent, alone
[11] = 90/10 ch3oh/h2o, Methomyl alone in solvent, alone

SMILES: CNC(=O)ON=C(C)SC [Methomyl]
- Solubility, Methomyl alone in solvent ([1]; alone): 24.5 gms/100 gms solvent
- Solubility, both actives in solvent: Methomyl ([1]; ratio 1:1): 39.6 gms/100 gms solvent
- Solubility, both actives in solvent: Methomyl ([1]; ratio 1:2.5): 40.2 gms/100 gms solvent
- Solubility, both actives in solvent: Methomyl ([1]; ratio 2:1): 42.7 gms/100 gms solvent
- Solubility, Methomyl alone in solvent ([2]; alone): 29.5 gms/100 gms solvent
- Solubility, both actives in solvent: Methomyl ([2]; ratio 1:1): 46.2 gms/100 gms solvent
- Solubility, both actives in solvent: Methomyl ([2]; ratio 1:2.5): 66.6 gms/100 gms solvent
- Solubility, both actives in solvent: Methomyl ([2]; ratio 2:1): 64.8 gms/100 gms solvent
- solubility (physchem [3]; 30/70 ch3oh/h2o, both actives in solvent: Methomyl, with oxamyl, 2:1 wt., 30/70 CH3OH/H2O): 241 mg/mL (≈ 1490 mM)
- solubility (physchem [3]; [6]): 62 mg/mL (≈ 382 mM)
- solubility (physchem [3]; 40/60 ch3oh/h2o, both actives in solvent: Methomyl, with oxamyl, 2:1 wt., 40/60 CH3OH/H2O): 422 mg/mL (≈ 2600 mM)
- solubility (physchem [3]; [7]): 105 mg/mL (≈ 647 mM)
- solubility (physchem [3]; 50/50 ch3oh/h2o, both actives in solvent: Methomyl, with oxamyl, 2:1 wt., 50/50 CH3OH/H2O): 461 mg/mL (≈ 2840 mM)
- solubility (physchem [3]; [8]): 155 mg/mL (≈ 956 mM)
- solubility (physchem [3]; 60/40 ch3oh/h2o, both actives in solvent: Methomyl, with oxamyl, 2:1 wt., 60/40 CH3OH/H2O): 552 mg/mL (≈ 3400 mM)
- solubility (physchem [3]; [9]): 208 mg/mL (≈ 1280 mM)
- solubility (physchem [3]; 70/30 ch3oh/h2o, both actives in solvent: Methomyl, with oxamyl, 2:1 wt., 70/30 CH3OH/H2O): 342 mg/mL (≈ 2110 mM)
- solubility (physchem [3]; [10]): 263 mg/mL (≈ 1620 mM)
- solubility (physchem [3]; 80/20 ch3oh/h2o, both actives in solvent: Methomyl, with oxamyl, 2:1 wt., 80/20 CH3OH/H2O): 598 mg/mL (≈ 3690 mM)
- solubility (physchem [3]; [11]): 299 mg/mL (≈ 1840 mM)
- solubility (physchem [3]; 90/10 ch3oh/h2o, both actives in solvent: Methomyl, with oxamyl, 2:1 wt., 90/10 CH3OH/H2O): 737 mg/mL (≈ 4540 mM)
- Solubility, Methomyl alone in solvent (physchem [3]; alone, 100/0 CH3OH/H2O): 30.7 gms/100 gms
- Solubility change when dissolved in combination (physchem [3]; methanol:water solvent systems, 2:1 wt. ratio dissolved initially): increased
- Solubility, both actives in solvent: Methomyl (physchem [3]; with oxamyl, 2:1 wt., 100/0 CH3OH/H2O): 82.5 gms/100 gms
- solubility (physchem [4]; 30/70 ch3oh/h2o, both actives in solvent: Methomyl, with oxamyl, 1:2.5 wt., 30/70 CH3OH/H2O): 156 mg/mL (≈ 962 mM)
- solubility (physchem [4]; [6]): 62 mg/mL (≈ 382 mM)
- solubility (physchem [4]; 40/60 ch3oh/h2o, both actives in solvent: Methomyl, with oxamyl, 1:2.5 wt., 40/60 CH3OH/H2O): 288 mg/mL (≈ 1780 mM)
- solubility (physchem [4]; [7]): 105 mg/mL (≈ 647 mM)
- solubility (physchem [4]; 50/50 ch3oh/h2o, both actives in solvent: Methomyl, with oxamyl, 1:2.5 wt., 50/50 CH3OH/H2O): 411 mg/mL (≈ 2530 mM)
- solubility (physchem [4]; [8]): 155 mg/mL (≈ 956 mM)
- solubility (physchem [4]; 60/40 ch3oh/h2o, both actives in solvent: Methomyl, with oxamyl, 1:2.5 wt., 60/40 CH3OH/H2O): 440 mg/mL (≈ 2710 mM)
- solubility (physchem [4]; [9]): 206 mg/mL (≈ 1270 mM)
- solubility (physchem [4]; 70/30 ch3oh/h2o, both actives in solvent: Methomyl, with oxamyl, 1:2.5 wt., 70/30 CH3OH/H2O): 220 mg/mL (≈ 1360 mM)
- solubility (physchem [4]; [10]): 263 mg/mL (≈ 1620 mM)
- solubility (physchem [4]; 80/20 ch3oh/h2o, both actives in solvent: Methomyl, with oxamyl, 1:2.5 wt., 80/20 CH3OH/H2O): 573 mg/mL (≈ 3530 mM)
- solubility (physchem [4]; [11]): 299 mg/mL (≈ 1840 mM)
- solubility (physchem [4]; 90/10 ch3oh/h2o, both actives in solvent: Methomyl, with oxamyl, 1:2.5 wt., 90/10 CH3OH/H2O): 699 mg/mL (≈ 4310 mM)
- Solubility, Methomyl alone in solvent (physchem [4]; alone, 100/0 CH3OH/H2O): 30.7 gms/100 gms
- Solubility, both actives in solvent: Methomyl (physchem [4]; with oxamyl, 1:2.5 wt., 100/0 CH3OH/H2O): 71.1 gms/100 gms
- Solubility, Methomyl alone in solvent ([5]; alone): 41.4 gms/100 gms solvent
- Solubility, both actives in solvent: Methomyl ([5]; ratio 1:1): 67.0 gms/100 gms solvent
- Solubility, both actives in solvent: Methomyl ([5]; ratio 1:2.5): 66.6 gms/100 gms solvent
- Solubility, both actives in solvent: Methomyl ([5]; ratio 2:1): 64.8 gms/100 gms solvent
